Earlier results as cited in patent US12599555B2, “Formulation” (priority 2019, dated 2026).

Settings: administered by inhalation in the treatment of asthma

bioavailability: 10-15%
SMILES: O=C([O-])c1cc(=O)c2c(OCC(O)COc3cccc4oc(C(=O)[O-])cc(=O)c34)cccc2o1.[Na+].[Na+] [sodium cromoglicate, disodium 5,5′-[(2-hydroxytrimethylene)dioxy]bis-[4-oxo-4H-1-benzopyran-2-carboxylate]]
